Assay results as given in PMC11882969 (Nature Communications, 2025).
“And” between values parts separate entries of the source, which are not always exact repeats. Identical values can stand only once. Like-named read-outs stand apart in the source and are kept apart here. Marks after values point to notes of the source that are not given here.

How the values were obtained:
CB1 (rCB1) [1] = target: T1, CB1 (rCB1) (Rattus norvegicus, UniProt P20272); assay: Single-point radioligand displacement screen; type: binding
T1 sequence (P20272 whole entry): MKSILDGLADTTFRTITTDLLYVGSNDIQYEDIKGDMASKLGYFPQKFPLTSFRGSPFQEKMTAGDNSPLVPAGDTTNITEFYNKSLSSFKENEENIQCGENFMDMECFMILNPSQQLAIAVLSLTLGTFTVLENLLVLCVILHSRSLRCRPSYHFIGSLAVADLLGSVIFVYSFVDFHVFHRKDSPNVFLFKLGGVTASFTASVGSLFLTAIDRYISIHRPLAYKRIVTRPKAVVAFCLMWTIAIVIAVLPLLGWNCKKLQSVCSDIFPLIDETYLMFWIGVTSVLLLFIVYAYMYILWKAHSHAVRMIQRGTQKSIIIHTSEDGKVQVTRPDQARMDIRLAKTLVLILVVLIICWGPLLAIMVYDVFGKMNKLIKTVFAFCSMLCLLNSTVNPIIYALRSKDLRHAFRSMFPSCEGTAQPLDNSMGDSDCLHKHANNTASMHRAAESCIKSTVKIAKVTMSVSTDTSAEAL

hCB1 [2] = target: T2, hCB1 (Homo sapiens, UniProt P21554); assay: Lance Ultra cAMP accumulation assay, CHO cells; type: cell-based; set-up: expressed in transfected cells; conditions: for cAMP assay signal, concentration-response point: replicates, sheet FigureS2a;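 as to all read-outs here: human CB1R stably expressed in CHO cells, ligands co-incubated with forskolin at room temperature, read-out is lowering of forskolin-stimulated cAMP accumulation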
T2 sequence (P21554 whole entry): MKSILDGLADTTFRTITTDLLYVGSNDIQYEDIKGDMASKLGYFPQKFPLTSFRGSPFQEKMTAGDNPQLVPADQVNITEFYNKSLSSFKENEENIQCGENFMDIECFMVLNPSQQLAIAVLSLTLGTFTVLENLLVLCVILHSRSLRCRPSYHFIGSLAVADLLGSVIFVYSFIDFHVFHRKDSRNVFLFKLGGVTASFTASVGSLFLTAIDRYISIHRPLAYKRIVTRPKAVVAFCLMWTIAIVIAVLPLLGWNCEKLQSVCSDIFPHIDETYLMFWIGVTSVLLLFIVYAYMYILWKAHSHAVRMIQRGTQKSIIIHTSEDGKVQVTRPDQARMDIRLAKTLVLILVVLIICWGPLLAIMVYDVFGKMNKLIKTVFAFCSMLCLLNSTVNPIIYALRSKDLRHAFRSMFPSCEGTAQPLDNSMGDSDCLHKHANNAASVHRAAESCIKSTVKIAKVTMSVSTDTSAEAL
Experimental: The inhibition of forskolin-stimulated cAMP accumulation assays was carried out using PerkinElmer’s Lance Ultra cAMP kit following the manufacturer’s protocol. In brief, CHO cells stably expressing human CB1R (provided by the lab of Laura Bohn) were harvested by incubation with Versene (ThermoFisher Scientific, Waltham, MA) for 10 min, washed once with Hank’s Balanced Salt Solution, and resuspended in stimulation buffer at ~200 cells/μL density. The ligands at eight different concentrations (0.001-10,000 nM) in stimulation buffer (5 μL) containing forskolin (2 μM final concentration) were added to a 384-well plate followed by the cell suspension (5 μL; ~1000 cells/well). The plate was incubated for 30 min at room temperature. Eu-cAMP tracer (5 μL) and Ulight-anti-cAMP (5 μL) working solutions were then added to each well, and the plate was incubated at room temperature for an additional 60 min. Results were measured on a Perkin-Elmer EnVision plate reader. The EC50 values were determined by nonlinear regression analysis using Graphpad Prism 9 and are expressed as the mean of three experiments, each performed in triplicate.

hCB1 [3] = target: T2, hCB1; assay: bioSensAll ebBRET signaling profiling, hCB1; type: cell-based; set-up: host or cells: HEK293SL cells, transient PEI transfection; conditions: for Barr2+GRK2 hCB1 response: Barr2+GRK2 biosensor; for Gi1 hCB1 / GoB hCB1: single replicate values, FigS6a; for Emax: normalized to CP-55,940
CB1 (rCB1) [4] = target: T1, CB1 (rCB1); assay: Radioligand competition binding, [3H]-CP-55,940, rat brain membranes

SMILES: Cn1nc(-c2nnc(C(C)(C)Oc3ccc(Cl)cc3)o2)c2ccccc2c1=O [‘0450]
- % 1H-CP-55,940 displacement (mean) from single point screen (CB1 (rCB1) [1]; 10 µM, 1 µM or 300 nM by cell colour (not visible)): 80.28%
- rep1_displacement (CB1 (rCB1) [1]; Figure 1c source data, replicate 1): 80.6
- rep2_displacement (CB1 (rCB1) [1]; Figure 1c source data, replicate 2): 81.2
- rep3_displacement (CB1 (rCB1) [1]; Figure 1c source data, replicate 3): 79
- cAMP assay signal, concentration-response point (hCB1 [2]; compound 0.01 nM): 0.002801 and 0.002457 and 0.003311
- cAMP assay signal, concentration-response point (hCB1 [2]; compound 0.1 nM): 0.004608* and 0.002375 and 0.002849
- cAMP assay signal, concentration-response point (hCB1 [2]; compound 1 nM): 0.002336 and 0.002132 and 0.002532
- cAMP assay signal, concentration-response point (hCB1 [2]; compound 10 nM): 0.002645 and 0.002538 and 0.002288
- cAMP assay signal, concentration-response point (hCB1 [2]; compound 100 nM): 0.002008 and 0.002532 and 0.002421
- cAMP assay signal, concentration-response point (hCB1 [2]; compound 1000 nM): 0.002545 and 0.002096 and 0.002506
- cAMP assay signal, concentration-response point (hCB1 [2]; compound 10000 nM): 0.001462 and 0.001302 and 0.001515
- cAMP assay signal, concentration-response point (hCB1 [2]; compound 100000 nM): 0.0002057* and 0.0001994* and 0.0002162*
- agonism, inhibition of forskolin-stimulated cAMP (hCB1 [2]; hCB1-expressing cells, in words): modest agonism
- Barr2+GRK2 hCB1 response (hCB1 [3]; Log [Compound] (M) -4.22186): 27.1048
- Barr2+GRK2 hCB1 response (hCB1 [3]; Log [Compound] (M) -4.63927): -24.5851
- Barr2+GRK2 hCB1 response (hCB1 [3]; Log [Compound] (M) -5.05788): -35.4335
- Barr2+GRK2 hCB1 response (hCB1 [3]; Log [Compound] (M) -5.47381): -53.9398
- Barr2+GRK2 hCB1 response (hCB1 [3]; Log [Compound] (M) -5.89285): -49.1537
- Barr2+GRK2 hCB1 response (hCB1 [3]; Log [Compound] (M) -6.31878): -46.282
- Barr2+GRK2 hCB1 response (hCB1 [3]; Log [Compound] (M) -6.72585): -46.9202
- Barr2+GRK2 hCB1 response (hCB1 [3]; Log [Compound] (M) -7.14267): -54.5779
- Barr2+GRK2 hCB1 response (hCB1 [3]; Log [Compound] (M) -7.55284): -56.4924
- Barr2+GRK2 hCB1 response (hCB1 [3]; Log [Compound] (M) -8): -48.8346
- Barr2+GRK2 hCB1 response (hCB1 [3]; Log [Compound] (M) -8.22186): -5.441
- Barr2+GRK2 hCB1 response (hCB1 [3]; Log [Compound] (M) -8.39794): -31.2856
- Barr2+GRK2 hCB1 response (hCB1 [3]; Log [Compound] (M) -8.68787): -55.2161
- Barr2+GRK2 hCB1 response (hCB1 [3]; Log [Compound] (M) -9.15521): -35.1145
- Barr2+GRK2 hCB1 response (hCB1 [3]; Log [Compound] (M) -9.61989): -47.5583
- Barr2+GRK2 hCB1 response (hCB1 [3]; Log [Compound] (M) -10.0969): -52.0253
- Barr2+GRK2 hCB1 response (hCB1 [3]; Log [Compound] (M) -10.5529): -34.4763
- Barr2+GRK2 hCB1 response (hCB1 [3]; Log [Compound] (M) -11.0177): -42.1341
- Barr2+GRK2 hCB1 response (hCB1 [3]; Log [Compound] (M) -11.4949): -48.5155
- Barr2+GRK2 hCB1 response (hCB1 [3]; Log [Compound] (M) -11.9208): -49.1537
- Barr2+GRK2 hCB1 response (hCB1 [3]; Log [Compound] (M) -12.3979): -55.5351
- Barr2+GRK2 hCB1 response (hCB1 [3]; Log [Compound] (M) -12.8861): -37.0289
- Barr2+GRK2 hCB1 response (hCB1 [3]; Log [Compound] (M) -13.3979): -10.8649
- Gi1 hCB1 (hCB1 [3]; Log [Compound] (M) -4.22186): 20.433
- GoB hCB1 (hCB1 [3]; Log [Compound] (M) -4.22186): 28.3973
- Gi1 hCB1 (hCB1 [3]; Log [Compound] (M) -4.63927): 13.3222
- GoB hCB1 (hCB1 [3]; Log [Compound] (M) -4.63927): 13.6053
- Gi1 hCB1 (hCB1 [3]; Log [Compound] (M) -5.05788): 9.41
- GoB hCB1 (hCB1 [3]; Log [Compound] (M) -5.05788): 19.1089
- Gi1 hCB1 (hCB1 [3]; Log [Compound] (M) -5.47381): 7.763
- GoB hCB1 (hCB1 [3]; Log [Compound] (M) -5.47381): 13.8657
- Gi1 hCB1 (hCB1 [3]; Log [Compound] (M) -5.89285): 5.34
- GoB hCB1 (hCB1 [3]; Log [Compound] (M) -5.89285): 8.258
- Gi1 hCB1 (hCB1 [3]; Log [Compound] (M) -6.31878): 2.791
- GoB hCB1 (hCB1 [3]; Log [Compound] (M) -6.31878): 3.397
- Gi1 hCB1 (hCB1 [3]; Log [Compound] (M) -6.72585): -1.469
- GoB hCB1 (hCB1 [3]; Log [Compound] (M) -6.72585): -0.5617
- Gi1 hCB1 (hCB1 [3]; Log [Compound] (M) -7.14267): -3.893
- GoB hCB1 (hCB1 [3]; Log [Compound] (M) -7.14267): -2.489
- Gi1 hCB1 (hCB1 [3]; Log [Compound] (M) -7.55284): -6.6323
- GoB hCB1 (hCB1 [3]; Log [Compound] (M) -7.55284): -6.586
- Gi1 hCB1 (hCB1 [3]; Log [Compound] (M) -8): -3.861
- GoB hCB1 (hCB1 [3]; Log [Compound] (M) -8): -8.513
- Gi1 hCB1 (hCB1 [3]; Log [Compound] (M) -8.22186): 0.6527
- GoB hCB1 (hCB1 [3]; Log [Compound] (M) -8.22186): -4.433
- Gi1 hCB1 (hCB1 [3]; Log [Compound] (M) -8.39794): -6.221
- GoB hCB1 (hCB1 [3]; Log [Compound] (M) -8.39794): -7.35
- Gi1 hCB1 (hCB1 [3]; Log [Compound] (M) -8.68787): -4.3993
- GoB hCB1 (hCB1 [3]; Log [Compound] (M) -8.68787): -5.892
- Gi1 hCB1 (hCB1 [3]; Log [Compound] (M) -9.15521): -5.159
- GoB hCB1 (hCB1 [3]; Log [Compound] (M) -9.15521): -7.419
- Gi1 hCB1 (hCB1 [3]; Log [Compound] (M) -9.61989): -4.621
- GoB hCB1 (hCB1 [3]; Log [Compound] (M) -9.61989): -5.371
- Gi1 hCB1 (hCB1 [3]; Log [Compound] (M) -10.0969): -6.442
- GoB hCB1 (hCB1 [3]; Log [Compound] (M) -10.0969): -8.097
- GoB hCB1 (hCB1 [3]; Log [Compound] (M) -10.5529): -7.003
- Gi1 hCB1 (hCB1 [3]; Log [Compound] (M) -11.0177): -5.524
- GoB hCB1 (hCB1 [3]; Log [Compound] (M) -11.0177): -9.104
- Gi1 hCB1 (hCB1 [3]; Log [Compound] (M) -11.4949): -5.872
- GoB hCB1 (hCB1 [3]; Log [Compound] (M) -11.4949): -8.479
- Gi1 hCB1 (hCB1 [3]; Log [Compound] (M) -11.9208): -6.363
- GoB hCB1 (hCB1 [3]; Log [Compound] (M) -11.9208): -7.454
- Gi1 hCB1 (hCB1 [3]; Log [Compound] (M) -12.3979): -5.935
- GoB hCB1 (hCB1 [3]; Log [Compound] (M) -12.3979): -8.392
- Gi1 hCB1 (hCB1 [3]; Log [Compound] (M) -12.8861): -4.653
- GoB hCB1 (hCB1 [3]; Log [Compound] (M) -12.8861): -8.739
- Gi1 hCB1 (hCB1 [3]; Log [Compound] (M) -13): -5.191
- GoB hCB1 (hCB1 [3]; Log [Compound] (M) -13): -7.871
- Gi1 hCB1 (hCB1 [3]; Log [Compound] (M) cell empty): -4.795
- GoB hCB1 (hCB1 [3]; Log [Compound] (M) cell empty): -4.173
- pEC50 [95% CI] (hCB1 [3]; hCB1 GoB): 5.6 [3.0 – 6.2]
- Emax (hCB1 [3]; read-out: Emax [95% CI], hCB1 Gi1): 49%
- Emax (hCB1 [3]; read-out: Emax [95% CI], hCB1 GoB): 36%
- radioligand binding remaining, competition curve (Figure2e), replicate values (CB1 (rCB1) [4]; log[drug] -3.643): 3.776 and 13.0342 and 10.5924
- radioligand binding remaining, competition curve (Figure2e), replicate values (CB1 (rCB1) [4]; log[drug] -4.35655): -5.187 and 0.4808 and -3.246
- radioligand binding remaining, competition curve (Figure2e), replicate values (CB1 (rCB1) [4]; log[drug] -5.07): 1.22 and 4.986 and -3.564
- radioligand binding remaining, competition curve (Figure2e), replicate values (CB1 (rCB1) [4]; log[drug] -5.783): 44.8894 and 48.8782 and 38.7216
- radioligand binding remaining, competition curve (Figure2e), replicate values (CB1 (rCB1) [4]; log[drug] -6.496): 82.7231 and 84.8647 and 75.4685
- radioligand binding remaining, competition curve (Figure2e), replicate values (CB1 (rCB1) [4]; log[drug] -7.21): 103.471 and 87.6068 and 85.0402
- radioligand binding remaining, competition curve (Figure2e), replicate values (CB1 (rCB1) [4]; log[drug] -7.923): 98.6842 and 84.2236 and 81.6265
- radioligand binding remaining, competition curve (Figure2e), replicate values (CB1 (rCB1) [4]; log[drug] -8.636): 102.059 and 98.0413 and 100.669
- pKi [95% CI] (CB1 (rCB1) [4]; rCB1): 6.16 [5.99 – 6.34]
